Measured values reported in PubChem BioAssay AID1918996 (Molecular Pharmacology Branch, DTP, NCI, 2023).

Tested on: 349418-098-R-PDC complex spheroid growth
Assay: Anticancer human tumor 349418-098-R-PDC patient-derived lung adenocarcinoma cell line growth inhibition [AhR]
Settings: for IC50: curve of first compound; for viability, T/C: stronger effect = lower value
Procedure, shortened: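 Complex tumor spheroids co-cultured with HUVEC and human MSC stroma; AhR antagonists tested in combination with standard-of-care and investigational agents. Top concentration at or near clinical Cmax (else 10 microM), half-log dilutions; growth expressed as percent test/control.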
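Also: spheroids exposed to agents for seven days before luminescence viability read.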
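For viability, T/C in this document: spheroids also contain HUVEC endothelial cells and human MSC stroma.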

IC50 (second compound 0.1 µM): > 10 µM
IC50 (second compound 0.316 µM): > 10 µM
IC50 (second compound 1 µM): > 10 µM
IC50 (second compound 3.16 µM): < 0.0316 µM
IC50 (second compound 10 µM): < 0.0316 µM
SMILES: CC(C)c1c(-c2ccccc2)nc2c(C#N)c[nH]n2c1=O + Cc1cncc(-c2nc(NCCc3c[nH]c4ccccc34)c3ncn(C(C)C)c3n2)c1
viability, T/C (second compound 0.1 µM, first compound 0.0316 µM): 102%
viability, T/C (second compound 0.1 µM, first compound 0.1 µM): 94.6%
viability, T/C (second compound 0.1 µM, first compound 0.316 µM): 97.9%
viability, T/C (second compound 0.1 µM, first compound 1 µM): 97.2%
viability, T/C (second compound 0.1 µM, first compound 3.16 µM): 97%
viability, T/C (second compound 0.1 µM, first compound 10 µM): 101%
viability, T/C (second compound 0.316 µM, first compound 0.0316 µM): 96.8%
viability, T/C (second compound 0.316 µM, first compound 0.1 µM): 82.4%
viability, T/C (second compound 0.316 µM, first compound 0.316 µM): 105%
viability, T/C (second compound 0.316 µM, first compound 1 µM): 93.2%
viability, T/C (second compound 0.316 µM, first compound 3.16 µM): 83.3%
viability, T/C (second compound 0.316 µM, first compound 10 µM): 95.2%
viability, T/C (second compound 1 µM, first compound 0.0316 µM): 94.1%
viability, T/C (second compound 1 µM, first compound 0.1 µM): 87%
viability, T/C (second compound 1 µM, first compound 0.316 µM): 83.6%
viability, T/C (second compound 1 µM, first compound 1 µM): 85.9%
viability, T/C (second compound 1 µM, first compound 3.16 µM): 78.6%
viability, T/C (second compound 1 µM, first compound 10 µM): 83.7%
viability, T/C (second compound 3.16 µM, first compound 0.0316 µM): 15.8%
viability, T/C (second compound 3.16 µM, first compound 0.1 µM): 16.5%
viability, T/C (second compound 3.16 µM, first compound 0.316 µM): 17.4%
viability, T/C (second compound 3.16 µM, first compound 1 µM): 12.2%
viability, T/C (second compound 3.16 µM, first compound 3.16 µM): 11.3%
viability, T/C (second compound 3.16 µM, first compound 10 µM): 12.6%
viability, T/C (second compound 10 µM, first compound 0.0316 µM): 0.96%
viability, T/C (second compound 10 µM, first compound 0.1 µM): 1.33%
viability, T/C (second compound 10 µM, first compound 0.316 µM): 1.19%
viability, T/C (second compound 10 µM, first compound 1 µM): 0.58%
viability, T/C (second compound 10 µM, first compound 3.16 µM): 0.81%
viability, T/C (second compound 10 µM, first compound 10 µM): 1.09%
